Measurements: patent publication EP1094724B1, “USE OF A PHENOL OXIDISING ENZYME IN THE TREATMENT OF TOBACCO” (priority 1998, dated 2000)

Legend:
[1] = tested on: Myceliopthora thermophila laccase (MtL); experiment: Laccase MtL treatment of tobacco extract, HPLC analysis of phenolic compounds (peak area); assay type: biochemical; conditions: for Remaining content (% remaining) (peak area relative to the content in the extract): before drying
Procedure: (§1) The content of phenolic compounds is analysed by HPLC according to the procedure described below: • Liquid chromatographic system: E.g. Shimadzu SCL-6B System Controller, and two LC-6A Liquid Chromatograph (pumps) or Waters model 600 E • Injector: Shimadzu SIL 6B Autoinjector or Waters 715 Ultra Wisp. UV detector: Shimadzu SPD-6A Photodiode Array UV-VIS detector or Waters Model 481 • Software: CLASS LC10 / CLASS-MXA or Maxima 820 • Column: Supelcosil™ LC-18 25 cm x 4.6 mm (Supelco, #5-8298) or µ Bondapack C198 stainless steel column, 30 cm x 4 mm i.d., 10 µm particle size. • Guard column: none or Guard-Pak from Waters packed with the same material. • Temperature: Ambient • Mobile phase flow: 1.3 ml/min • Injection volume: 20µl • Wavelength: 350 nm • Eluent: Binary gradient (linear) mixture of A: KH2PO4 (28.4 g in 2000 ml de-mineralised water) and B: methanol (please see table 1 and figure 1). The eluent is filtered through a 0.45 µm filter and degassed before use.
(§2) Prior to HPLC analysis, the samples were filtered through a 0.45 µm filter or smaller, e.g. a sterile Sartorius Minisart 0.45 µm filter (#16555) or a Millipore Millex-GS 0.22 µm (#SBGS 0 25 SB) to remove the haze/precipitate normally formed during enzyme treatment. Normally, no dilution of the extract/sample was made before HPLC analysis.
For qualitative and semi-quantitative measurements, each of the standards was dissolved in 96% ethanol, and then mixed in a ratio and at a concentration which was within the range in the tobacco extract. For semi-quantification of the phenolic compounds in the tobacco extract, and as a measure of development in concentration of the various compounds contained in the extract, decrease in peak area relative to the peak area before addition of enzyme was used. As a measure of overall efficiency of the process, degree of reduction in total peak area of all peaks (not only the major ones) in the HPLC chromatogram with retention time Rt>3 min was used (named: "All peaks").
Unless otherwise indicated, the tobacco was extracted at a laboratory scale with water according to the following procedure: 1000 ml demineralised water is heated to 45°C. 30 g tobacco (approx. 25 g d.m.) is added and the mixture stirred by a magnetic bar and occasionally with a stick. After 15 minutes the tobacco residue is separated from the tobacco extract by vacuum filtration (Whatman glass micro fibre GF/F 11 cm). The filtered extract is then vacuum filtered at least once more or until it is completely clear. Yield was around 900 ml tobacco extract. […] No buffer was thus included in any of the trials. D.m. content of the extract was approximately 2.1%.
Tobacco extract (typically 50-100 ml) was poured into a glass beaker and a magnetic bar was added. No pH adjustments were made, and no buffer was added. The tobacco extract was heated to and controlled at 55°C during the entire enzyme treatment by means of a heating plate and a thermostat. Intensive submerse aeration was applied by blowing atmospheric air into the extract by means of a metal sinter (metal suction filter normally used for HPLC). The enzyme in question (TvL or PpL) was added to the desired concentration. Shortly after addition of laccase, the colour of the tobacco extract turned dark brown to black, and with time the liquor became turbid and a precipitate formed. The liquor was sampled with intervals for HPLC analysis.
It is obvious, that MtL can also be used to remove the phenolic compounds. It is evident, that using a dosage of MtL of approximately 0.63 µg/ml, longer processing time is needed compared to using a dosage of 6.3 µg/ml to obtain the same degree of reduction of the phenolic compounds, and that almost complete removal can be obtained with a dosage of approximately 0.63 µg/ml.
Enzyme treatment: MtL enzyme was added at various concentrations in the range 2.5 µg/ml - 6.3 µg/ml. A fixed processing time of 20 minutes was used. […]

[2] = tested on: Myceliopthora thermophila laccase (MtL); experiment: MtL treatment of tobacco extract, quantitative HPLC of chlorogenic acid, rutin and scopoletin; assay type: biochemical; conditions: detection limit CA 2.43, R 1.55, S 0.50 µg/ml
Procedure: as §1, §2
For quantitative measurements the following standards were made in the extracting solution: Chlorogenic acid: 20 mg/ml; Scopoletin: 1 mg/ml; Rutin: 0.75 mg/ml.
The mixture was intensely aerated during the reaction time.
"Raw tobacco" was extracted according to the procedure described in Example 8. […] After enzyme treatment, bentonite was added at a concentration of 1 g/L at the temperature of the extract after the laccase treatment (50°C) for 10 minutes. The slurry was clarified at a flow rate of 1 L/min using a continuous centrifuge. The enzyme treated and clarified extract was then concentrated 40 fold by means of reverse osmosis and evaporation. The concentrate was then recombined with the "tobacco residue" by spraying back the extract onto the tobacco residue, and finally dried, resulting in "recombined tobacco material".
Samples of tobacco before and after extraction and recombination with the tobacco extract was analysed for nicotine, reducing sugars, total sugars by means of an Auto Analyzer according to the method previously described, and analysed for chlorogenic acid, rutin, and scopoletin by means of HPLC according the method previously described. The tobacco extract before and after MtL and bentonite treatment was analysed for chlorogenic acid, rutin, and scopoletin by means of HPLC according the method previously described.

[3] = 5 min, 52.0 °C, 4.1 µg/ml MtL, 3.0 kg/100 litre scale
[4] = 5 minutes, 56.2 °C, MtL, 6.0 kg/200 litre scale
[5] = 10 min, 50.3 °C, 4.1 µg/ml MtL, 3.0 kg/100 litre scale
[6] = 10 minutes, 55.8 °C, MtL, 6.0 kg/200 litre scale
[7] = 15 min, 48.8 °C, 4.1 µg/ml MtL, 3.0 kg/100 litre scale
[8] = 15 minutes, 55.2 °C, MtL, 6.0 kg/200 litre scale
[9] = 20 min, 47.4 °C, 4.1 µg/ml MtL, 3.0 kg/100 litre scale
[10] = 20 minutes, 54.5 °C, MtL, 6.0 kg/200 litre scale
[11] = 30 min, 45.0 °C, 4.1 µg/ml MtL, 3.0 kg/100 litre scale
[12] = 30 minutes, 53.5 °C, MtL, 6.0 kg/200 litre scale
[13] = 45 min, 41.9 °C, 4.1 µg/ml MtL, 3.0 kg/100 litre scale
[14] = 45 minutes, 52.2 °C, MtL, 6.0 kg/200 litre scale
[15] = 60 min, 39.1 °C, 4.1 µg/ml MtL, 3.0 kg/100 litre scale
[16] = 60 minutes, 51.0 °C, MtL, 6.0 kg/200 litre scale
[17] = Extract after MtL treatment, 4.1 µg/ml MtL, 20 minutes at 55°C, intense aeration
[18] = Extract after MtL- and bentonite treatment and separation by centrifugation, 4.1 µg/ml MtL 20 minutes at 55°C, bentonite 1 g/L 10 minutes at 50°C

**Q.** Which results are given for COc1cc2ccc(=O)oc2cc1O [S, 7-Hydroxy-6-methoxy-2H-1-benzopyran-2-one]?
**A.** Residual amount (% remaining) (peak area) ([1]; 0 % pO2, 3.8 µg/ml MtL for 20 minutes at pH 5.4 and 55°C): 100%; Residual amount (% remaining) (peak area) ([1]; 2.5 µg MtL /ml, 20 minutes at pH 5.4 and 55°C, intensive submerse aeration): 97%; Residual amount (% remaining) (peak area) ([1]; 3.8 µg MtL /ml, 20 minutes at pH 5.4 and 55°C, intensive submerse aeration): 69%; Residual amount (% remaining) (peak area) ([1]; 6.3 µg MtL /ml, 20 minutes at pH 5.4 and 55°C, intensive submerse aeration): 52%; Residual amount (% remaining) (peak area) ([1]; 30 % pO2, 3.8 µg/ml MtL for 20 minutes at pH 5.4 and 55°C): 75%; Residual amount (% remaining) (peak area) ([1]; 50 % pO2, 3.8 µg/ml MtL for 20 minutes at pH 5.4 and 55°C): 59%; Residual amount (% remaining) (peak area) ([1]; 90 % pO2, 3.8 µg/ml MtL for 20 minutes at pH 5.4 and 55°C): 45%; % Remaining (peak area) after various treatment times ([1]; 10 min, approx. 6.3 µg/ml MtL at pH 5.4 and 55°C, intensive submerse aeration): 78%; % Remaining (peak area) after various treatment times ([1]; 20 min, approx. 6.3 µg/ml MtL at pH 5.4 and 55°C, intensive submerse aeration): 52%; % Remaining (peak area) after various treatment times ([1]; 67 min, approx. 0.63 µg/ml MtL at pH 5.4 and 55°C, intensive submerse aeration): 90%; % Remaining (peak area) after various treatment times ([1]; 150 min, approx. 0.63 µg/ml MtL at pH 5.4 and 55°C, intensive submerse aeration): 76%; Remaining content (% remaining) (peak area relative to the content in the extract) ([1]; Sample 4 enzyme treated extract after separation from precipitate, approximately 7.5 µg/ml MtL, 30 minutes, 53-56°C, pH 5.5): 47%; Remaining content (% remaining) (peak area relative to the content in the extract) ([1]; Sample 6 enzyme and bentonite treated extract separated from precipitate and bentonite, approximately 7.5 µg/ml MtL 30 minutes, then bentonite 15 minutes at 50-55°C): 44%; Content in tobacco extract during MtL treatment [2, 3]: 0.0063 mg/mL; Content in tobacco extract during MtL treatment [2, 4]: 0.0101 mg/mL; Content in tobacco extract during MtL treatment [2, 5]: 0.0027 mg/mL; Content in tobacco extract during MtL treatment [2, 6]: 0.0090 mg/mL; Content in tobacco extract during MtL treatment [2, 7]: 0.0014 mg/mL; Content in tobacco extract during MtL treatment [2, 8]: 0.0078 mg/mL; Content in tobacco extract during MtL treatment [2, 9]: 0.0010 mg/mL; Content in tobacco extract during MtL treatment [2, 10]: 0.0054 mg/mL; Content in tobacco extract during MtL treatment [2, 11]: 0.0010 mg/mL; Content in tobacco extract during MtL treatment [2, 12]: 0.0043 mg/mL; Content in tobacco extract during MtL treatment [2, 13]: 0.0010 mg/mL; Content in tobacco extract during MtL treatment [2, 14]: 0.0020 mg/mL; Content in tobacco extract during MtL treatment [2, 15]: 0.0010 mg/mL; Content in tobacco extract during MtL treatment [2, 16]: 0.0019 mg/mL; phenolic compound content of tobacco extract [2, 17]: 0.0047 mg/mL; phenolic compound content of tobacco extract [2, 18]: 0.0017 mg/mL

**Q.** With O=C(C=Cc1ccc(O)c(O)c1)OC1CC(O)(C(=O)O)CC(O)C1O (stereo not drawn) [CA, 3-[[3-(3,4-Dihydroxyphenyl)-1-oxo-2-propenyl]oxy]1,4,5-trihydroxycyclohexanecarboxylic acid] as the molecule, how does the “Content in tobacco extract during MtL treatment” value [2, 3] read?
**A.** 0.036 mg/mL

**Q.** What about the “Content in tobacco extract during MtL treatment” value [2, 4] of the same molecule?
**A.** 0.0166 mg/mL

**Q.** And the “Content in tobacco extract during MtL treatment” value [2, 5]?
**A.** BDL

**Q.** What about the “Content in tobacco extract during MtL treatment” value [2, 6] of the same molecule?
**A.** 0.0138 mg/mL

**Q.** And the “Content in tobacco extract during MtL treatment” value [2, 7]?
**A.** BDL

**Q.** And the “Content in tobacco extract during MtL treatment” value [2, 8]?
**A.** BDL

**Q.** And the “Content in tobacco extract during MtL treatment” value [2, 9]?
**A.** BDL

**Q.** And the “Content in tobacco extract during MtL treatment” value [2, 10]?
**A.** BDL

**Q.** And the “Content in tobacco extract during MtL treatment” value [2, 11]?
**A.** BDL

**Q.** What about the “Content in tobacco extract during MtL treatment” value [2, 12] of the same molecule?
**A.** BDL

**Q.** And the “Content in tobacco extract during MtL treatment” value [2, 13]?
**A.** BDL

**Q.** What about the “Content in tobacco extract during MtL treatment” value [2, 14] of the same molecule?
**A.** BDL

**Q.** And the “Content in tobacco extract during MtL treatment” value [2, 15]?
**A.** BDL

**Q.** What about the “Content in tobacco extract during MtL treatment” value [2, 16] of the same molecule?
**A.** BDL

**Q.** What about the “phenolic compound content of tobacco extract” value [2, 17] of the same molecule?
**A.** BDL

**Q.** What about the “phenolic compound content of tobacco extract” value [2, 18] of the same molecule?
**A.** BDL
